Laboratory results published in patent US9469615B2, “Quinoxalines and AZA-quinoxalines as CRTH2 receptor modulators” (Merck Sharp & Dohme Corp., priority 2010, dated 2016).

Each compound was assayed against T1, hCRTH2 (Homo sapiens, UniProt Q9Y5Y4) (assay: Radioligand binding assay ([3H]PGD2 competition, HEK-hCRTH2 membranes)). Details: [3H]PGD2 competition, Table B.
T1 construct: expressed in transfected cells; host or cells: HEK (human embryonic kidney) cells expressing hCRTH2; membrane preparation
T1 sequence (Q9Y5Y4 1-395): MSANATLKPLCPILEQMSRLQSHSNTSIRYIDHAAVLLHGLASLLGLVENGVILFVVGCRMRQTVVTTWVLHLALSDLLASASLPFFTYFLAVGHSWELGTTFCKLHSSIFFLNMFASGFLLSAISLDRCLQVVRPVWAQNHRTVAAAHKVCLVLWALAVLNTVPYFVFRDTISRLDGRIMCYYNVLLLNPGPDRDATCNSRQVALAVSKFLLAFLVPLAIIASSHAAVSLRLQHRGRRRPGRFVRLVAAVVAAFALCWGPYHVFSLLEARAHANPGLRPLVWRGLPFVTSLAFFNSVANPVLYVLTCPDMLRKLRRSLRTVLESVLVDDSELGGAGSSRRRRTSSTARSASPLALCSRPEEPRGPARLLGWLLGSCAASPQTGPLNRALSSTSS
Method in brief: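 Membranes (8-20 μg protein) from HEK-hCRTH2 cells were incubated 60 min at room temperature with 3.0 nM [3H]PGD2 in 50 mM Tris-HCl pH 7.4, 1 mM EDTA, 2 mM MnCl2, 1% DMSO. Non-specific binding defined with 10 μM PGD2. Bound radioactivity counted after filtration.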

`O=C(O)CCCCc1nc2cc(C(=O)NCC3(c4ccc(OC(F)(F)F)cc4)CC3)ccc2nc1-c1ccc(Cl)cc1` [compound 317, 5-(3-(4-chlorophenyl)-7-(((1-(4-(trifluoromethoxy)phenyl)cyclopropyl)methyl)carbamoyl)quinoxalin-2-yl)pentanoic acid] and `O=C(O)CCCCc1nc2cc(C(=O)NCC3(c4ccc(F)cc4)CC3)ccc2nc1-c1ccc(Cl)cc1` [compound 318, 5-(3-(4-chlorophenyl)-7-(((1-(4-fluorophenyl)cyclopropyl)methyl)carbamoyl)quinoxalin-2-yl)pentanoic acid] fall in the same range of Ki: 2.1 to 20 nM for the first, 2.1 to 20 nM for the second.

First: O=C(O)CCCCc1nc2cc(C(=O)NC3NC(=O)c4ccccc43)ccc2nc1-c1ccc(Cl)cc1 (stereo not shown) [compound 319, 5-(3-(4-chlorophenyl)-7((3-oxoisoindolin-1-yl)carbamoyl)quinoxalin-2-yl)pentanoic acid]
Second: CN(C(=O)c1ccc2nc(-c3ccc(Cl)cc3)c(CCCCC(=O)O)nc2c1)C1NC(=O)c2ccccc21 (stereo not shown) [compound 336, 5-(3-(4-chlorophenyl)-7-(methyl(3-oxoisoindolin-1-yl)carbamoyl)quinoxalin-2-yl)pentanoic acid]
The Ki of the first is lower: 2.1 to 20 nM for the first, 20.1 to 200 nM for the second.

`O=C(O)CCCCc1nc2cc(C(=O)N[C@@H]3CCS(=O)(=O)c4ccccc43)ccc2nc1-c1ccc(Cl)cc1` [compound 320, (R)-5-(3-(4-chlorophenyl)-7-((1,1-dioxidothiochroman-4-yl)carbamoyl)quinoxalin-2-yl)pentanoic acid] and `O=C(O)CCCCc1nc2cc(C(=O)NC3CSc4ccccc43)ccc2nc1-c1ccc(Cl)cc1` (stereo not shown) [compound 331, 5-(3-(4-chlorophenyl)-7-((2,3-dihydrobenzo[b]thiophen-3-yl)carbamoyl)quinoxalin-2-yl)pentanoic acid] fall in the same range of Ki: 2.1 to 20 nM for the first, 2.1 to 20 nM for the second.

`C[C@H](NC(=O)c1ccc2nc(-c3ccc(Cl)cc3)c(CCCCC(=O)O)nc2c1)c1cncc2ccccc12` [compound 321, (S)-5-(3-(4-chlorophenyl)-7-((1-(isoquinolin-4-yl)ethyl)carbamoyl)quinoxalin-2-yl)pentanoic acid] and `C[C@H](NC(=O)c1ccc2nc(-c3ccc(Cl)cc3)c(CCCCC(=O)O)nc2c1)c1cccc2ncccc12` [compound 322, (S)-5-(3-(4-chlorophenyl)-7-((1-(quinolin-5-yl)ethyl)carbamoyl)quinoxalin-2-yl)pentanoic acid] fall in the same range of Ki: 2.1 to 20 nM for the first, 2.1 to 20 nM for the second.

`O=C(O)CCCCc1nc2cc(C(=O)N3CC(OCc4ccccc4)C3)ccc2nc1-c1ccc(Cl)cc1` [compound 323, 5-(7-(3-(benzyloxy)azetidine-1-carbonyl)-3-(4-chlorophenyl)quinoxalin-2-yl)pentanoic acid] and `O=C(O)CCCCc1nc2cc(C(=O)N3CC(Oc4ccccn4)C3)ccc2nc1-c1ccc(Cl)cc1` [compound 329, 5-(3-(4-chlorophenyl)-7-(3-(pyridin-2-yloxy)azetidine-1-carbonyl)quinoxalin-2-yl)pentanoic acid] fall in the same range of Ki: 2.1 to 20 nM for the first, 2.1 to 20 nM for the second.

Compared with `O=C(O)CCCCc1nc2cc(C(=O)N3CC(n4cccn4)C3)ccc2nc1-c1ccc(Cl)cc1` [compound 324, 5-(7-(3-(1H-pyrazol-1-yl)azetidine-1-carbonyl)-3-(4-chlorophenyl)quinoxalin-2-yl)pentanoic acid], `O=C(O)CCCCc1nc2cc(C(=O)N3CC(n4ccnc4)C3)ccc2nc1-c1ccc(Cl)cc1` [compound 325, 5-(7-(3-(1H-imidazol-1-yl)azetidine-1-carbonyl)-3-(4-chlorophenyl)quinoxalin-2-yl)pentanoic acid] is higher in Ki: 2.1 to 20 nM for the first, 20.1 to 200 nM for the second.

Compared with `O=C(O)CCCCc1nc2cc(C(=O)N3CC(c4nc(-c5ccncc5)no4)C3)ccc2nc1-c1ccc(Cl)cc1` [compound 326, 5-(3-(4-chlorophenyl)-7-(3-(3-(pyridin-4-yl)-1,2,4-oxadiazol-5-yl)azetidine-1-carbonyl)quinoxalin-2-yl)pentanoic acid], `O=C(O)CCCCc1nc2cc(C(=O)N3CC(n4cnnc4)C3)ccc2nc1-c1ccc(Cl)cc1` [compound 327, 5-(7-(3-(4H-1,2,4-triazol-4-yl)azetidine-l-carbonyl)-3-(4-chlorophenyl)quinoxalin-2-yl)pentanoic acid] is higher in Ki: 2.1 to 20 nM for the first, 20.1 to 200 nM for the second. The first binds more tightly here.

`O=C(O)CCCCc1nc2cc(C(=O)N3CC(F)(c4ccccc4)C3)ccc2nc1-c1ccc(Cl)cc1` [compound 328, 5-(3-(4-chlorophenyl)-7-(3-fluoro-3-phenylazetidine-1-carbonyl)quinoxalin-2-yl)pentanoic acid] and `O=C(O)CCCCc1nc2cc(C(=O)N3CCC(n4ccc5ccccc54)CC3)ccc2nc1-c1ccc(Cl)cc1` [compound 338, 5-(7-(4-(1H-indol-1-yl)piperidine-l-carbonyl)-3-(4-chlorophenyl)quinoxalin-2-yl)pentanoic acid] fall in the same range of Ki: 2.1 to 20 nM for the first, 2.1 to 20 nM for the second.

`CN(C)c1cccc(-c2nc3ccc(C(=O)N[C@@H]4CCCc5ccccc54)cc3nc2CCCCC(=O)O)c1` [compound 330, (R)-5-(3-(3-(dimethylamino)phenyl)-7-((1,2,3,4-tetrahydronaphthalen-1-yl)carbamoyl)quinoxalin-2-yl)pentanoic acid] and `O=C(O)CCCCc1nc2cc(C(=O)N[C@@H]3CCOc4cc(Cl)ccc43)ccc2nc1-c1ccc(Cl)cc1` [compound 334, (R)-5-(7-((7-chlorochroman-4-yl)carbamoyl)-3-(4-chlorophenyl)quinoxalin-2-yl)pentanoic acid] fall in the same range of Ki: 2.1 to 20 nM for the first, 2.1 to 20 nM for the second.

`N#Cc1ccc2c(c1)OCC[C@H]2NC(=O)c1ccc2nc(-c3ccc(Cl)cc3)c(CCCCC(=O)O)nc2c1` [compound 332, (R)-5-(3-(4-chlorophenyl)-7-((7-cyanochroman-4-yl)carbamoyl)quinoxalin-2-yl)pentanoic acid] and `N#Cc1ccc2c(c1)OCC[C@@H]2NC(=O)c1ccc2nc(-c3ccc(Cl)cc3)c(CCCCC(=O)O)nc2c1` [compound 333, (S)-5-(3-(4-chlorophenyl)-7-((7-cyanochroman-4-yl)carbamoyl)quinoxalin-2-yl)pentanoic acid.] fall in the same range of Ki: 2.1 to 20 nM for the first, 2.1 to 20 nM for the second.

`O=C(O)CCCCc1nc2cc(C(=O)N[C@H]3CCOc4cc(Cl)ccc43)ccc2nc1-c1ccc(Cl)cc1` [compound 335, (S)-5-(7-((7-chlorochroman-4-yl)carbamoyl)-3-(4-chlorophenyl)quinoxalin-2-yl)pentanoic acid] and `O=C(O)CCCCc1nc2cc(C(=O)N3CCC(n4cncn4)CC3)ccc2nc1-c1ccc(Cl)cc1` [compound 341, 5-(7-(4-(1H-1,2,4-triazol-yl)piperidine-1-carbonyl)-3-(4-chlorophenyl)quinoxalin-2-yl)pentanoic acid] fall in the same range of Ki: 2.1 to 20 nM for the first, 2.1 to 20 nM for the second.

`O=C(O)CCCCc1nc2cc(C(=O)N3CCC(N4CCCCC4)CC3)ccc2nc1-c1ccc(Cl)cc1` [compound 337, 5-(7-([1,4′-bipiperidine]-1′-carbonyl)-3 (4-chlorophenyl)quinoxalin-2-yl)pentanoic acid] and `O=C(O)CCCCc1nc2cc(C(=O)N3CCC(N4CCCC4)CC3)ccc2nc1-c1ccc(Cl)cc1` [compound 339, 5-(3-(4-chlorophenyl)-7-(4-(pyrrolidin-1-yl)piperidine-1-carbonyl)quinoxalin-2-yl)pentanoic acid] fall in the same range of Ki: 20.1 to 200 nM for the first, 20.1 to 200 nM for the second.

`O=C(O)CCCCc1nc2cc(C(=O)N3CCC4(CCOC4)CC3)ccc2nc1-c1ccc(Cl)cc1` [compound 340, 5-(3-(4-chlorophenyl)-7-(2-oxa-8-azaspiro[4.5]decane-8-carbonyl)quinoxalin-2-yl)pentanoic acid] showed a Ki of 2.1 to 20 nM.
